Converted amounts (≈) assume the structure as drawn.
System: superoxide radicals (O2^-) released from the peritoneal macrophage cells of guinea pig
Test: Inhibitory effect against superoxide radicals (O2^-) released from the peritoneal macrophage cells of guinea pig by stimulation
Assay type: cell-based
Settings: Cavia porcellus, Peritoneal macrophage cell; guinea pig peritoneal macrophages 2×10^6 cells/ml; FMLP 10^-7 M; cytochrome C reduction, OD550; 37° C.; read-out: 50% inhibitory concentration (IC50), superoxide radical release
Experimental: Inhibitory effect against superoxide radicals (O2^-) released from the peritoneal macrophage cells of guinea pig by stimulation
Mineral oil (15 ml) was intraperitoneally administered to a guinea pig, then 96 hours after the administration, the peritoneal macrophage cells were samples.
Superoxide redicals (O2^-) were determined by means of reduction of cytochrome C method according to the procedure described in an article by T. Matsumoto, K. Takeshige and S. Minakami: Biochemical and Biophysical Research Communications, Vol. 88, No. 3, pp. 974-979, (1979).
The peritoneal macrophage cells were added to make the final concentration of 2×10^6 cells/ml into 1 ml of 80 μM-cytochome C solution, and the test compound of indole derivative of the present invention was added thereto to make the test group sample. On the other hand, water was added in place of the indole derivative of the present invention to make the control group sample. Each of the test group sample and the control group sample was subjected to pure incubaiton at 37° C. for 1 minute.
As to the stimulating agent for releasing superoxide radicals (O2^-), FMLP (formylmethionyl leucyl phenylalanine) was added to make the final concentration thereof to 10^-7 M, to each of the test group sample and the control group sample. Then both samples were subjected to additional reaction by incubation for 1 minute.
Difference of the optical absorbances measured at 550 nm (OD550) of both test group and control group samples were determined, and the 50% inhibitory concentration (IC50) was obtained by calculating as the ratio of OD550 of the test group sample to that of the control group sample.

`CC(C)Cc1c(=O)[nH]c(-c2c[nH]c3ccccc23)c(Cl)[n+]1[O-]` [Compound E-30, 5-Chloro-6-(indol-3-yl)-3-isobutyl-1,2-dihydropyrazin-2-one 4-oxide] was tested. Which IC50 did it give?
The IC50 was 8 µg/mL (≈ 25.2 µM).

How did the IC50 turn out when `CC(C)Cc1c(=O)[nH]c(Cc2c[nH]c3ccccc23)c(Cl)[n+]1[O-]` [Compound E-57a, 5-Chloro-6-(indol-3-yl)methyl-3-isobutyl-1,2-dihydropyrazin-2-one 4-oxide] was run?
Its IC50 is 10 µg/mL (≈ 30.1 µM).

With `CC(C)Cc1c(Cl)nc(Cc2c[nH]c3ccccc23)c(=O)n1O` [Compound A-38, 5-chloro-1-hydroxy-3-(indol-3-yl)methyl-6-isobutyl-1,2-dihydropyrazin-2-one] as the molecule, how does the IC50 read?
Its IC50 is 6 µg/mL (≈ 18.1 µM).

Which IC50 does the source give for `COc1c(Cn2ccc3ccccc32)[nH]c(=O)c(CC(C)C)[n+]1[O-]` [Compound E-36p, 6-(Indol-1-yl)methyl-3-isobutyl-5-methoxy-1,2-dihydropyrazin-2-one 4-oxide] here?
The IC50 was 8 µg/mL (≈ 24.4 µM).

Which IC50 does the source give for `CC(C)Cc1c(=O)[nH]c(Cc2c[nH]c3ccccc23)c([S+](C)[O-])[n+]1[O-]` (stereo not shown) [Compound E-58, 6-(Indol-3-yl)methyl-3-isobutyl-5-methylsulfinyl-1,2-dihydropyrazin-2-one 4-oxide] here?
The IC50 was 6 µg/mL (≈ 16.7 µM).

How did the IC50 turn out when `COc1nc(CC(C)C)c(=O)[nH]c1Cc1c[nH]c2ccccc12` [Compound A-16] was run?
Its IC50 is 50 µg/mL (≈ 161 µM).

With `COc1c(Cc2c[nH]c3ccc(O)cc23)[nH]c(=O)c(CC(C)C)[n+]1[O-]` [Compound E-34j, 6-[(5-Hydroxy)indol-3-yl]methyl-3-isobutyl-5-methoxy-1,2-dihydropyrazin-2-one 4-oxide] as the molecule, how does the IC50 read?
The IC50 was 10 µg/mL (≈ 29.1 µM).

For `COC(=O)n1cc(Cc2nc(Cl)c(CC(C)C)n(OC)c2=O)c2ccccc21` [Compound A-47, 5-Chloro-6-isobutyl-3-[(1-methoxycarbonyl)indol-3-yl]methyl-1-methoxy-12,-dihydropyrazin-2-one], which IC50 is on record?
Its IC50 is 25 µg/mL (≈ 61.9 µM).

How did the IC50 turn out when `CC(C)C[C@@H]1C(=O)N(C)[C@@H](Cc2c[nH]c3ccccc23)C(=O)N1O` [Compound E-72a, (3S,6R)-1-Hydroxy-3-(indol-3-yl)methyl-6-isobutyl-4-methylpiperazine-2,5-dione] was run?
The IC50 was 0.8 µg/mL (≈ 2.43 µM).

How did the IC50 turn out when `COc1c(Cc2c[nH]c3c(C)cccc23)[nH]c(=O)c(CC(C)C)[n+]1[O-]` [Compound E-34f, 3-Isobutyl-5-methoxy-6-[(7-methyl)indol-3-yl]methyl-1,2-dihydropyrazin-2-one 4-oxide] was run?
The IC50 was 7 µg/mL (≈ 20.5 µM).

With `COC1=N[C@@H](CC(C)C)C(=O)N/C1=C\c1c[nH]c2ccccc12` [Compound A-17, (3S,Z)-6-(Indol-3-yl)methylidene-3-isobutyl-5-methoxy-1,2,3,6-tetrahydropyrazin-2-one] as the molecule, how does the IC50 read?
Its IC50 is 15 µg/mL (≈ 48.2 µM).

For `CC(C)Cc1c(=O)[nH]c(Cc2c[nH]c3ccccc23)c(N)[n+]1[O-]` [Compound A-62, 5-amino-6-(indol-3-yl)methyl-3-isobutyl-1,2-dihydropyrazin-2-one 4-oxide], which IC50 is on record?
The IC50 was 12 µg/mL (≈ 38.4 µM).

With `COc1ccc2[nH]cc(Cc3[nH]c(=O)c(CC(C)C)[n+]([O-])c3OC)c2c1` [Compound E-34h, 3-Isobutyl-5-methoxy-6-[(5-methoxy)indol-3-yl]methyl-1,2-dihydropyrazin-2-one 4-oxide] as the molecule, how does the IC50 read?
The IC50 was 5 µg/mL (≈ 14 µM).

`CC(C)Cc1c(=O)[nH]c(Cc2c[nH]c3ccccc23)c(OC(C)C)[n+]1[O-]` [Compound E-46a, 6-(Indol-3-yl)methyl-3-isobutyl-5-isopropoxy-1,2-dihydroipyrazin-2-one 4-oxide] was tested. Which IC50 did it give?
The IC50 was 3 µg/mL (≈ 8.44 µM).

For `CCc1c(Cc2c[nH]c3ccccc23)[nH]c(=O)c(CC(C)C)[n+]1[O-]` [Compound A-82b, 5-Ethyl-6-(indol-3-yl)methyl-3-isobutyl-1,2-dihydropyrazin-2-one 4-oxide], which IC50 is on record?
The IC50 was 12 µg/mL (≈ 36.9 µM).

How did the IC50 turn out when `CC(C)C[C@@H]1C(=O)N[C@@H](Cc2c[nH]c3ccccc23)C(=O)N1O` [Compound A-30a, (3S,6R)-1-Hydroxy-3-(indol-3-yl)methyl-6-isobutylpiperazine-2,5-dione] was run?
The IC50 was 10 µg/mL (≈ 31.7 µM).

With `CC(C)C[C@H]1C(=O)N[C@@H](Cc2c[nH]c3ccccc23)C(=O)N1O` [Compound A-29a, (3S,6S)-1-Hydroxy-3-(indol-3-yl)methyl-6-isobutylpiperazine-2,5-dione] as the molecule, how does the IC50 read?
Its IC50 is 50 µg/mL (≈ 159 µM).

How did the IC50 turn out when `CC(C)C[C@@H]1C(=O)N(C)[C@@H](Cc2cn(C)c3ccccc23)C(=O)N1O` [Compound E-73a, (3S,6R)-1-Hydroxy-6-isobutyl-4-methyl-3-[(1-methyl)indol-3-yl]methylpiperazine-2,5-dione] was run?
Its IC50 is 2 µg/mL (≈ 5.82 µM).

With `COc1c(Cc2c[nH]c3ccc(F)cc23)[nH]c(=O)c(CC(C)C)[n+]1[O-]` [Compound E-34a, 6-[(5-Fluoro)indol-3-yl]methyl-3-isobutyl-5-methoxy-1,2-dihydropyrazin-2-one 4-oxide] as the molecule, how does the IC50 read?
The IC50 was 10 µg/mL (≈ 29 µM).

With `COc1c(Cc2c[nH]c3ccccc23)[nH]c(=O)c(CC2CCCCC2)[n+]1[O-]` [Compound E-6f, 3-Cyclohexylmethyl-6-(indol-3-yl)methyl-5-methoxy-1,2-dihydropyrazin-2-one 4-oxide] as the molecule, how does the IC50 read?
The IC50 was 4 µg/mL (≈ 10.9 µM).

How did the IC50 turn out when `CSc1c(Cc2c[nH]c3ccccc23)[nH]c(=O)c(CC(C)C)[n+]1[O-]` [Compound E-57c, 6-(Indol-3-yl)methyl-3-isobutyl-5-methylthio-1,2-dihydropyrazin-2-one 4-oxide] was run?
Its IC50 is 10 µg/mL (≈ 29.1 µM).

Which IC50 does the source give for `COc1c(Cc2c[nH]c3ccccc23)[nH]c(=O)c(Cc2c[nH]c3ccccc23)[n+]1[O-]` [Compound E-6g, 3,6-Di(indol-3-yl)methyl-5-methoxy-1,2-dihydropyrazin-2-one 4-oxide] here?
The IC50 was 1.5 µg/mL (≈ 3.75 µM).

With `COc1ccc2[nH]c(C)c(Cc3[nH]c(=O)c(CC(C)C)[n+]([O-])c3OC)c2c1` [Compound E-34k, 3-Isobutyl-5-methoxy-6-[(5-methoxy-2-methyl)indol-3-yl]methyl-1,2-dihydropyrazin-2-one 4-oxide] as the molecule, how does the IC50 read?
Its IC50 is 2 µg/mL (≈ 5.38 µM).

`CC(C)Cc1c(=O)[nH]c(Cc2c[nH]c3ccccc23)c(S(C)(=O)=O)[n+]1[O-]` [Compound E-57d, 6-(Indol-3-yl)methyl-3-isobutyl-5-methylsulfonyl-1,2-dihydropyrazin-2-one 4-oxide] was tested. Which IC50 did it give?
Its IC50 is 10 µg/mL (≈ 26.6 µM).

`COc1c(Cc2c[nH]c3ccccc23)nc(Cl)c(CC(C)C)[n+]1[O-]` [Compound A-46, 3-chloro-5-(indol-3-yl)methyl-2-isobutyl-6-methoxypyrazine-1-oxide] was tested. Which IC50 did it give?
The IC50 was 30 µg/mL (≈ 86.7 µM).

How did the IC50 turn out when `COc1c(Cc2c[nH]c3ccc(Br)cc23)[nH]c(=O)c(CC(C)C)[n+]1[O-]` [Compound E-34c, 6-[(5-Bromo)indol-3-yl]methyl-3-isobutyl-5-methoxy-1,2-dihydropyrazin-2-one 4-oxide] was run?
Its IC50 is 5 µg/mL (≈ 12.3 µM).

`CC(=O)Nc1c(Cc2c[nH]c3ccccc23)[nH]c(=O)c(CC(C)C)[n+]1[O-]` [Compound A-63, 5-acetamino-6-(indol-3-yl)methyl-3-isobutyl1,2-dihydropyrazin-2-one 4-oxide] was tested. Which IC50 did it give?
Its IC50 is 30 µg/mL (≈ 84.6 µM).

`COc1c(Cc2c[nH]c3ccccc23)[nH]c(=O)c(Cc2ccccc2)[n+]1[O-]` [Compound E-6d, 3-Benzyl-6-(indol-3-yl)methyl-5-methoxy-1,2-dihydropyrazin-2-one 4-oxide] was tested. Which IC50 did it give?
The IC50 was 5 µg/mL (≈ 13.8 µM).

`COc1c(Cc2cn(C)c3ccccc23)nc(OCc2ccccc2)c(CC(C)C)[n+]1[O-]` [Compound E-67a, 3-Benzyloxy-2-isobutyl-5-[(1-methyl)indol-3-yl]methyl-6-methoxypyrazine 1-oxide] was tested. Which IC50 did it give?
The IC50 was 10 µg/mL (≈ 23.2 µM).

For `CCOc1c(Cc2c[nH]c3ccccc23)[nH]c(=O)c(CC(C)C)[n+]1[O-]` [Compound E-12, 5-Ethoxy-6-(indol-3-yl)methyl-3-isobutyl-1,2-dihydropyrazin-2-one 4-oxide], which IC50 is on record?
The IC50 was 8 µg/mL (≈ 23.4 µM).

System: releasing of lysosome from the neutrocytes of rat
Test: Inhibitory effect against the releasing of lysosome from the neutrocytes of rat
Assay type: cell-based
Settings: 0.25 h; rat neutrocytes 5×10^5 cells/ml; FMLP 10^-6 M + cytochalasin B 5 μg/ml; 15 minutes; OD550; read-out: 50% inhibitory concentration (IC50), releasing of lysosome
Experimental: Inhibitory effect against the releasing of lysosome from the neutrocytes of rat
The neutrocytes of rat were samples from the abdominal cavity of the reat 16 hours after the administration of 10 ml of 1%-casein solution (physiological saline solution).
Reaction of the releasing of lysosome from the neutrocytes of rat was determined by means of the method described in an article by T. Matsumoto, K. Takeshige and S. Minakami: Biochemical and Biophysical Research Communications, Vol. 88, No. 3, pp. 974-979, (1979).
The neutrocytes being sampled were added to Hank's soluiton so as to make the concentraiton thereof as 5×10^5 cells/ml, and the test compound of indole derivative of the present invention was added thereto to make the test group sample. On the other hand, water was added in place of the indole derivative of the present invention to make the control group sample. Each of the test group sample and the control group sample was subjected to pre-incubation at 37° C. for 1 minute.
As to the stimulating agents, 10^-6 M of FMLP (formylmethionyl leucyl phenylalanine) and 5 μg/ml of cytochalasin B were added to the solution. Thus, obtained mixture of the solution was reacted by incubating for 15 minutes. After the incubation, the mixture of the solution was subjected to centrifugation at 2,000 rpm for 10 minutes. The supernatant (0.2 ml) was admixed with 0.5 ml of 0.1M-acetic acid buffer solution (pH 4.5) in which 0.2 mM of phenolphthalein glucuronic acid was dissolved. Then the resulting mixture of the solutions was reacted at 37° C. for 5 hours by incubation. After the reaction, 1N-NaOH solution was added to the reaction mixture so as to make the pH thereof to pH 8-9, and the optical absorbance of both test group samples and control group samples were determined at 550 nm (OD550).
The 50% inhibitory concentration (IC50) values were obtained by calculating as the ratio of OD550 of the test group samples to that of the control group samples.

With `COC1=N[C@@H](CC(C)C)C(=O)N(C)/C1=C\c1c[nH]c2ccccc12` [Compound A-5b, (3S,Z)-6-(Indol-3-yl)methylidene-3-isobutyl-5-methoxy-1-methyl-1,2,3,6-tetrahydropyrazin-2-one] as the molecule, how does the IC50 read?
The IC50 was 25 µg/mL.
